For the test, the target named is T1, SmaR (Serratia marcescens, UniProt Q14RS3).
T1 construct: pure recombinant protein
Briefly: microscale thermophoresis. Format: binding. A general note: MST reads how a fluorescent partner responds to local heating, with and without ligand.

T1 sequence (Q14RS3 1-248): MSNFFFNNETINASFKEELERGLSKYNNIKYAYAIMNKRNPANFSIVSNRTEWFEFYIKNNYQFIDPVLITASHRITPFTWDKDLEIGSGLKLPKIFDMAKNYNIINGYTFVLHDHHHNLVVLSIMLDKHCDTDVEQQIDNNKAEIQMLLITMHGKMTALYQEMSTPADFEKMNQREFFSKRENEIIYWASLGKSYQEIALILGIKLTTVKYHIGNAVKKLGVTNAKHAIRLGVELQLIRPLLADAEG

The Kd is the free concentration of one partner at which half of the binding sites on the other are occupied at equilibrium, for simple one-to-one binding. Low values mean tighter binding, high ones weaker binding. `Cc1ccc(/C=C/[N+](=O)[O-])cc1` [compound 28, (E)‐1‐methyl‐4‐(2‐nitrovinyl)benzene] registered a Kd of 38.9 µM.
